The subject of this data set is human maximum recommended daily dose, FDA database. The data set can be described thus: DSSTox (FDAMDD) FDA Maximum (Recommended) Daily Dose Database. The settings on record: hits give low values. In short, it runs like this:
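MRDD values come from clinical trials with daily oral dosing, usually for 3–12 months, for the average adult, in mg/day converted to mg/kg-bw/day assuming 60 kg. Antineoplastic mg/m2 doses are divided by 37. Activity score maps log10(1/MRDD mmol) onto 1–100.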

[1] abbreviates: TherapeuticCategory: antibacterial.
Where [2] appears, read: TherapeuticCategory: narcotic analgesic.
[3] abbreviates: TherapeuticCategory: anxiolytic.
The mark [4] stands for this setting: TherapeuticCategory: antihypertensive.
[5] abbreviates: TherapeuticCategory: skeletal muscle relaxant.
[6] abbreviates: TherapeuticCategory: antimalarial.
Where [7] appears, read: TherapeuticCategory: glucocorticoid.
Setting [8] is: TherapeuticCategory: antidepressant.

As to `CO[C@H]1C[C@H](O[C@H]2[C@H](C)[C@@H](O[C@@H]3O[C@H](C)C[C@H](N(C)C)[C@H]3O)[C@@H](C)C[C@]3(CO3)C(=O)[C@H](C)[C@@H](O)[C@@H](C)[C@@H](C)OC(=O)[C@@H]2C)O[C@@H](C)[C@@H]1O`, the maximum recommended daily dose (mmol/kg-bw/day) under setting [1] is 0.0484.
With `CN1CC[C@]23CCCC[C@H]2[C@H]1Cc1ccc(O)cc13`, the maximum recommended daily dose (mmol/kg-bw/day) under setting [2] is 0.000583.
`CCCCCCCCCCC[C@@H](C[C@@H]1OC(=O)[C@H]1CCCCCC)OC(=O)C(CC(C)C)NC=O` (some centres not stated): the maximum recommended daily dose (mmol/kg-bw/day) (TherapeuticCategory: antiobesity) was 0.0121.
As to `C[C@@H]1CN2CC(=O)Nc3ccc(Cl)cc3[C@]2(c2ccccc2)O1`, under setting [3], the maximum recommended daily dose (mmol/kg-bw/day) is 0.00304.
For the compound `CC(C)NCC(O)COc1ccc(COCCOC(C)C)cc1` (configuration not stated), the maximum recommended daily dose (mmol/kg-bw/day) under setting [4] was 0.00102.
For the compound `CCOC(=O)C1(c2ccccc2)CCN(CCc2ccc(N)cc2)CC1`, under setting [2], the maximum recommended daily dose (mmol/kg-bw/day) is 0.00945.
In the case of `C=C1CC[C@@]2(O)[C@H]3Cc4ccc(O)c5c4[C@@]2(CCN3CC2CC2)[C@H]1O5`, the maximum recommended daily dose (mmol/kg-bw/day) (TherapeuticCategory: narcotic antagonist) is 0.00245.
Turning to `CC(=O)[C@H]1CC[C@H]2[C@@H]3C=CC4=CC(=O)CC[C@@]4(C)[C@@H]3CC[C@]12C`, the maximum recommended daily dose (mmol/kg-bw/day) (TherapeuticCategory: progestogen) was 0.0016.
As to `CCCCCCCCCC(=O)OCCN1CCN(CCCN2c3ccccc3Sc3ccc(C(F)(F)F)cc32)CC1`, for the setting “TherapeuticCategory: antispsychotic”, the maximum recommended daily dose (mmol/kg-bw/day) is 0.000563.
With `NC(=O)NC(=O)Cc1ccccc1`, for the setting “TherapeuticCategory: anticonvulsant”, the maximum recommended daily dose (mmol/kg-bw/day) was 0.281.
Consider `CN(CCO)CC(O)Cn1cnc2c1c(=O)n(C)c(=O)n2C` (configuration not stated) (tested in a mixture with another compound), for which, under “TherapeuticCategory: peripheral vasodilator”, the maximum recommended daily dose (mmol/kg-bw/day) was 0.0575.
For `CC(=O)OCC(=O)[C@@]1(OC(=O)c2ccco2)[C@H](C)C[C@H]2[C@@H]3CCC4=CC(=O)C=C[C@]4(C)[C@@]3(F)[C@@H](O)C[C@@]21C`, where the note is “TherapeuticCategory: glucocorticoid, anti inflammatory”, the maximum recommended daily dose (mmol/kg-bw/day) is 0.000284.
`CN=C(NC#N)NCCSCc1nc[nH]c1C`: the maximum recommended daily dose (mmol/kg-bw/day) (TherapeuticCategory: antiulcerative) is 0.159.
Take `CC(=O)OC(C)C[N+](C)(C)C` (configuration not stated): the maximum recommended daily dose (mmol/kg-bw/day) (TherapeuticCategory: cholinergic, diagnostic aid) is 0.00213.
In the case of `CC(=O)OC1C([N+]2(C)CCCCC2)C[C@H]2[C@@H]3CC[C@H]4C[C@H](OC(C)=O)C(N5CCCCC5)C[C@]4(C)[C@H]3CC[C@]12C` (some centres not stated), the maximum recommended daily dose (mmol/kg-bw/day) under setting [5] was 0.000157.
As for `O=C1CN=C(c2ccccc2)c2cc([N+](=O)[O-])ccc2N1`, where the note is “TherapeuticCategory: anticonvulsant, hypnotic”, the maximum recommended daily dose (mmol/kg-bw/day) is 0.00118.
For the compound `OCCOCCN1CCN(C(c2ccccc2)c2ccc(Cl)cc2)CC1` (configuration not stated), the maximum recommended daily dose (mmol/kg-bw/day) (TherapeuticCategory: anxiolytic, antihistaminic) is 0.0178.
Consider `Cc1ncsc1CCCl`, for which the maximum recommended daily dose (mmol/kg-bw/day) (TherapeuticCategory: sedative, hypnotic, anticonvulsant) is 0.0396.
In the case of `C=CCC1(C(C)CCC)C(=O)N=C(O)NC1=O` (configuration not stated), for the setting “TherapeuticCategory: sedative, hypnotic”, the maximum recommended daily dose (mmol/kg-bw/day) is 0.0128.
Turning to `COC1=C(C(=O)O)N2C(=O)[C@@H](NC(=O)[C@H](N)C3=CCC=CC3)[C@H]2SC1`, the maximum recommended daily dose (mmol/kg-bw/day) under setting [1] was 0.0911.
As for `CCC(=O)Oc1ccc2c(c1)CC[C@@H]1[C@@H]2CC[C@]2(C)[C@@H](OC(=O)CC)CC[C@@H]12`, the maximum recommended daily dose (mmol/kg-bw/day) (TherapeuticCategory: estrogen) was 0.0013.
For `CN1CCN(CCC=C2c3ccccc3Sc3ccc(S(=O)(=O)N(C)C)cc32)CC1`, the maximum recommended daily dose (mmol/kg-bw/day) (TherapeuticCategory: antipsychotic, dopamine receptor antagonist) was 0.00113.
Take `CN(C)[C@@H]1C(=O)C(C(N)=O)=C(O)[C@@]2(O)C(=O)C3=C(O)c4c(O)cccc4[C@@](C)(O)[C@H]3[C@H](O)[C@@H]12`: the maximum recommended daily dose (mmol/kg-bw/day) under setting [1] was 0.0671.
In the case of `N[C@@H](Cc1ccc(O)c(O)c1)C(=O)O`, where the note is “TherapeuticCategory: antiparkinsonian”, the maximum recommended daily dose (mmol/kg-bw/day) was 0.674.
With `NNc1nnc(NN)c2ccccc12`, the maximum recommended daily dose (mmol/kg-bw/day) under setting [4] is 0.0175.
On to `CS(=O)(=O)OCCCCOS(C)(=O)=O`, for which the maximum recommended daily dose (mmol/kg-bw/day) (TherapeuticCategory: antineoplastic) was 0.00054.
As for `COC12CC[C@@]3(C[C@@H]1[C@](C)(O)C(C)(C)C)[C@H]1Cc4ccc(O)c5c4[C@@]3(CCN1CC1CC1)[C@H]2O5`, under setting [2], the maximum recommended daily dose (mmol/kg-bw/day) is 0.00114.
Turning to `C=C1/C(=C\C=C2/CCC[C@]3(C)[C@@H]([C@H](C)CCCC(C)(C)O)CC[C@@H]23)C[C@@H](O)C[C@@H]1O`, the maximum recommended daily dose (mmol/kg-bw/day) (TherapeuticCategory: calcium regulator) was 1.2e-07.
As for `NC[C@@H]1O[C@H](O[C@H]2[C@@H](O)[C@H](O[C@@H]3[C@@H](O)[C@H](N)C[C@H](N)[C@H]3O[C@H]3O[C@H](CO)[C@@H](O)[C@H](O)[C@H]3N)O[C@@H]2CO)[C@H](N)[C@@H](O)[C@@H]1O`, the maximum recommended daily dose (mmol/kg-bw/day) (TherapeuticCategory: antibacterial, antiamebic) was 0.0569.
As for `NS(=O)(=O)c1cc(C(=O)O)c(NCc2ccco2)cc1Cl`, where the note is “TherapeuticCategory: diuretic, antihypertensive”, the maximum recommended daily dose (mmol/kg-bw/day) is 0.0302.
For `CS(=O)(=O)c1ccc([C@@H](O)[C@@H](COC(=O)CN)NC(=O)C(Cl)Cl)cc1`, under setting [1], the maximum recommended daily dose (mmol/kg-bw/day) was 0.111.
On to `CC1(C)N=C(N)N=C(N)N1c1ccc(Cl)cc1`, for which the maximum recommended daily dose (mmol/kg-bw/day) under setting [6] is 0.00132.
On to `CC(=O)OCC(=O)[C@@]1(O)[C@@H](C)C[C@H]2[C@@H]3CCC4=CC(=O)C=C[C@]4(C)[C@@]3(F)[C@@H](O)C[C@@]21C`, for which, under setting [7], the maximum recommended daily dose (mmol/kg-bw/day) was 0.000345.
As to `c1ccc(C2(N3CCCCC3)CCCCC2)cc1`, the maximum recommended daily dose (mmol/kg-bw/day) (TherapeuticCategory: analgesic, anesthetic) was 0.000822.
On to `C[C@]12CC[C@H]3[C@@H](CCC4=CC(=O)CC[C@@H]43)[C@@H]1CC[C@@H]2OC(=O)CCc1ccccc1`, for which the maximum recommended daily dose (mmol/kg-bw/day) (TherapeuticCategory: anabolic steroid) is 0.00819.
For the compound `N[C@@H]1[C@@H](O)[C@H](O)[C@@H](CO)O[C@H]1O`, the maximum recommended daily dose (mmol/kg-bw/day) (TherapeuticCategory: antiarthritic) is 0.558.
As to `C[C@]12CC[C@@H]3c4ccc(OS(=O)(=O)O)cc4CC[C@H]3[C@@H]1CCC2=O`, the maximum recommended daily dose (mmol/kg-bw/day) (TherapeuticCategory: estrogen) was 0.000107.
With `CCC[C@H](N[C@@H](C)C(=O)N1[C@H](C(=O)O)C[C@@H]2CCCC[C@@H]21)C(=O)OCC`, the maximum recommended daily dose (mmol/kg-bw/day) (TherapeuticCategory: antihypertensive, ACE inhibitor) is 0.000361.
For `CCOC(=O)N1CCC(=C2c3ccc(Cl)cc3CCc3cccnc32)CC1`, for the setting “TherapeuticCategory: antihistaminic”, the maximum recommended daily dose (mmol/kg-bw/day) is 0.000436.
As to `Cc1c(-c2ccccc2)n(/N=N/n2c(-c3ccccc3)c(C)[n+]3ccccc23)c2cccc[n+]12`, the maximum recommended daily dose (mmol/kg-bw/day) under setting [5] is 0.00165.
In the case of `CCC1C(C)=NN=C(c2ccc(OC)c(OC)c2)c2cc(OC)c(OC)cc21` (configuration not stated), the maximum recommended daily dose (mmol/kg-bw/day) under setting [3] is 0.00654.
For the compound `OC[C@@H](O)[C@@H](O)[C@H](O)[C@@H](O)CO`, where the note is “TherapeuticCategory: cathartic”, the maximum recommended daily dose (mmol/kg-bw/day) is 4.57.
With `CO[C@@]1(NC(=O)C2SC(=C(C(N)=O)C(=O)O)S2)C(=O)N2C(C(=O)O)=C(CSc3nnnn3C)CS[C@@H]21` (some centres not stated), the maximum recommended daily dose (mmol/kg-bw/day) under setting [1] was 0.116.
For the compound `NC[C@H]1O[C@H](O[C@H]2[C@H](O)[C@@H](O[C@H]3O[C@H](CO)[C@@H](O)[C@H](N)[C@H]3O)[C@H](N)C[C@@H]2N)[C@H](O)[C@@H](O)[C@@H]1O`, the maximum recommended daily dose (mmol/kg-bw/day) under setting [1] was 0.031.
Take `O=c1[nH]c(=O)n([C@H]2C[C@H](O)[C@@H](CO)O2)cc1F`: the maximum recommended daily dose (mmol/kg-bw/day) (TherapeuticCategory: antiviral, antineoplastic) was 0.00244.
Regarding `Oc1ccc(Cl)cc1Cc1cc(Cl)ccc1O`, the maximum recommended daily dose (mmol/kg-bw/day) (TherapeuticCategory: anthelmintic) is 0.372.
With `Cc1ccc(C(=O)c2cc(O)c(O)c([N+](=O)[O-])c2)cc1`, the maximum recommended daily dose (mmol/kg-bw/day) (TherapeuticCategory: antidepressant, catechol-O-methyltransferase inhibitor) is 0.0122.
With `CNCCCN1c2ccccc2CCc2ccccc21`, the maximum recommended daily dose (mmol/kg-bw/day) under setting [8] is 0.0188.
For `CN1[C@@H]2CCC[C@H]1CC(NC(=O)c1nn(C)c3ccccc13)C2` (some centres not stated), the maximum recommended daily dose (mmol/kg-bw/day) (TherapeuticCategory: antiemetic) was 3.2e-05.
For the compound `CC(=O)OCC(=O)[C@@]1(OC(=O)C(C)C)[C@@H](C)C[C@H]2[C@@H]3CCC4=CC(=O)C=C[C@]4(C)[C@@]3(F)[C@@H](O)C[C@@]21C`, under setting [7], the maximum recommended daily dose (mmol/kg-bw/day) is 0.000297.
On to `COc1ncnc(NS(=O)(=O)c2ccc(N)cc2)c1OC`, for which the maximum recommended daily dose (mmol/kg-bw/day) under setting [1] is 0.0806.
As for `CC[C@H](C)C(=O)O[C@H]1C[C@H](O)C=C2C=C[C@H](C)[C@H](CC[C@@H](O)C[C@@H](O)CC(=O)O)[C@H]21`, the maximum recommended daily dose (mmol/kg-bw/day) (TherapeuticCategory: antihyperlipoproteinemic) is 0.00157.
As to `CC(CN(C)C)CN1c2ccccc2CCc2ccccc21` (configuration not stated), the maximum recommended daily dose (mmol/kg-bw/day) under setting [8] is 0.0113.
For the compound `CCCCN(CCCC)CCC(O)c1cc2c(Cl)cc(Cl)cc2c2cc(C(F)(F)F)ccc12` (configuration not stated), under setting [6], the maximum recommended daily dose (mmol/kg-bw/day) was 0.05.
For the compound `COC(=O)[C@H]1[C@H]2C[C@@H]3c4[nH]c5cc(OC)ccc5c4CCN3C[C@H]2C[C@@H](OC(=O)/C=C/c2cc(OC)c(OC)c(OC)c2)[C@@H]1OC`, the maximum recommended daily dose (mmol/kg-bw/day) under setting [4] is 2.63e-05.
For the compound `Oc1c(I)cc(I)c2cccnc12`, the maximum recommended daily dose (mmol/kg-bw/day) (TherapeuticCategory: antiamebic) is 0.0756.
In the case of `CN(CC(=O)N1CCOCC1)Cc1c(Cl)cccc1NC(=O)c1ccccc1`, the maximum recommended daily dose (mmol/kg-bw/day) (TherapeuticCategory: antitussive, respiratory stimulant) is 0.0199.
On to `CC(NC(C)(C)C)C(=O)c1cccc(Cl)c1` (configuration not stated), for which the maximum recommended daily dose (mmol/kg-bw/day) under setting [8] is 0.0313.
For `CCN(CC)S(=O)(=O)c1ccc(C(=O)O)cc1`, the maximum recommended daily dose (mmol/kg-bw/day) (TherapeuticCategory: uricosuric) was 0.194.
Turning to `CC/C(=C(/CC)c1ccc(O)cc1)c1ccc(O)cc1`, under “TherapeuticCategory: estrogen”, the maximum recommended daily dose (mmol/kg-bw/day) is 0.0373.
On to `CC(C)(C#N)c1cc(Cn2cncn2)cc(C(C)(C)C#N)c1`, for which, under “TherapeuticCategory: androgen”, the maximum recommended daily dose (mmol/kg-bw/day) was 5.69e-05.
Consider `COc1cccc([C@@]2(O)CCCC[C@@H]2CN(C)C)c1`, for which the maximum recommended daily dose (mmol/kg-bw/day) (TherapeuticCategory: analgesic) is 0.0253.

The values above are taken from PubChem BioAssay AID1195 (EPA DSSTox, 2008).
